Key:
Type in all cases: in vivo
[1] = test system: barnyardgrass (Echinochloa crus-galli); experiment: Test A pre-/postemergence: barnyardgrass; details: for Barnyardgrass plant response rating: Postemergence; for Plant response rating, Barnyardgrass: Preemergence
Excerpt: (§1) Seeds of barnyardgrass (Echinochloa crus-galli), crabgrass, large (large crabgrass, Digitaria sanguinalis), foxtail, giant (giant foxtail, Setaria faberii), morningglory (Ipomoea spp.), pigweed (Amaranthus retroflexus), velvetleaf (Abutilon theophrasti), wheat (Triticum aestivum), and corn (Zea mays) were planted into a blend of loam soil and sand and treated preemergence with a directed soil spray using test chemicals formulated in a non-phytotoxic solvent mixture which included a surfactant. At the same time these species were also treated with postemergence applications of test chemicals formulated in the same manner.
(§2) Plants ranged in height from two to ten cm and were in the one- to two-leaf stage for the postemergence treatment. Treated plants and untreated controls were maintained in a greenhouse for approximately ten days, after which time all treated plants were compared to untreated controls and visually evaluated for injury. Plant response ratings, summarized in Table A, are based on a 0 to 100 scale where 0 is no effect and 100 is complete control. A dash (-) response means no test result.

[2] = test system: crabgrass, large (large crabgrass, Digitaria sanguinalis); experiment: Test A pre-/postemergence: crabgrass, large; details: for Crabgrass, Large plant response rating: Postemergence; for Plant response rating, Crabgrass, Large: Preemergence
Excerpt: as §1, §2

[3] = test system: foxtail, giant (giant foxtail, Setaria faberii); experiment: Test A pre-/postemergence: foxtail, giant; details: for Foxtail, Giant plant response rating: Postemergence; for Plant response rating, Foxtail, Giant: Preemergence
Excerpt: as §1, §2

[4] = test system: morningglory (Ipomoea spp.); experiment: Test A pre-/postemergence: morningglory; details: for Morningglory plant response rating: Postemergence; for Plant response rating, Morningglory: Preemergence
Excerpt: as §1, §2

[5] = test system: pigweed (Amaranthus retroflexus); experiment: Test A pre-/postemergence: pigweed; details: for Pigweed plant response rating: Postemergence; for Plant response rating, Pigweed: Preemergence
Excerpt: as §1, §2

[6] = test system: velvetleaf (Abutilon theophrasti); experiment: Test A pre-/postemergence: velvetleaf; details: for Velvetleaf plant response rating: Postemergence; for Plant response rating, Velvetleaf: Preemergence
Excerpt: as §1, §2

[7] = test system: wheat (Triticum aestivum); experiment: Test A pre-/postemergence: wheat; details: for Wheat plant response rating: Postemergence; for Plant response rating, Wheat: Preemergence
Excerpt: as §1, §2

corn (Zea mays) = experiment: Test A pre-/postemergence: corn; details: for Corn plant response rating: Postemergence; for Plant response rating, Corn: Preemergence
Excerpt: as §1, §2

[8] = 125 g ai/ha, 0 to 100 scale, 0 is no effect, 100 is complete control
[9] = 500 g ai/ha, visual rating on 0 to 100 scale (0 no effect, 100 complete control), approximately ten days
[10] = 125 g ai/ha, 0 to 100 scale (0 no effect, 100 complete control)
[11] = 500 g ai/ha, 0 to 100 scale, 0 is no effect, 100 is complete control
[12] = 125 g ai/ha, 0 to 100 scale where 0 is no effect and 100 is complete control
[13] = 500 g ai/ha, 0 to 100 scale (0 no effect, 100 complete control)

| SMILES | Barnyardgrass plant response rating [1, 8] | Barnyardgrass plant response rating [1, 9] | Crabgrass, Large plant response rating [2, 8] | Crabgrass, Large plant response rating [2, 9] | Foxtail, Giant plant response rating [3, 8] | Foxtail, Giant plant response rating [3, 9] | Plant response rating, Foxtail, Giant [3, 12] | Morningglory plant response rating [4, 8] | Morningglory plant response rating [4, 9] | Plant response rating, Morningglory [4, 12] | Pigweed plant response rating [5, 8] | Pigweed plant response rating [5, 9] | Plant response rating, Pigweed [5, 12] | Velvetleaf plant response rating [6, 8] | Velvetleaf plant response rating [6, 9] | Plant response rating, Velvetleaf [6, 12] | Wheat plant response rating [7, 8] | Wheat plant response rating [7, 9] | Plant response rating, Wheat [7, 12] | Corn plant response rating (corn (Zea mays); [8]) | also measured |
| --- | --- | --- | --- | --- | --- | --- | --- | --- | --- | --- | --- | --- | --- | --- | --- | --- | --- | --- | --- | --- | --- |
| Cc1nn(-c2ccc(F)cc2)nc1Oc1ccc(Cl)c(C(F)(F)F)c1 [Compound 99] | 10 | 30 | 30 | 70 | 20 | 80 | 10 | 60 | 80 | 0 | 70 | 100 | 20 | 10 | 60 | 0 | 0 | 20 | 0 | 20 | Plant response rating, Barnyardgrass [1, 10]: 0; Plant response rating, Barnyardgrass [1, 11]: 10; Plant response rating, Crabgrass, Large [2, 10]: 30; Plant response rating, Crabgrass, Large [2, 11]: 60; Plant response rating, Foxtail, Giant [3, 11]: 80; Plant response rating, Morningglory [4, 11]: 0; Plant response rating, Pigweed [5, 11]: 60; Plant response rating, Velvetleaf [6, 11]: 20; Plant response rating, Wheat [7, 11]: 0; Corn plant response rating (corn (Zea mays); [9]): 20; Plant response rating, Corn (corn (Zea mays); [10]): 0; Plant response rating, Corn (corn (Zea mays); [11]): 0 |
| Cc1nn(-c2ccc(F)cc2)nc1Oc1cccc(OC(F)(F)F)c1 [Compound 100] | 10 | 30 | 60 | 80 | 50 | 70 | 20 | 90 | 90 | 0 | 80 | 90 | 10 | 30 | 70 | 0 | 0 | 20 | 0 | 10 | Plant response rating, Barnyardgrass [1, 10]: 0; Plant response rating, Barnyardgrass [1, 11]: 20; Plant response rating, Crabgrass, Large [2, 10]: 10; Plant response rating, Crabgrass, Large [2, 11]: 90; Plant response rating, Foxtail, Giant [3, 11]: 70; Plant response rating, Morningglory [4, 11]: 0; Plant response rating, Pigweed [5, 11]: 90; Plant response rating, Velvetleaf [6, 11]: 0; Plant response rating, Wheat [7, 11]: 0; Corn plant response rating (corn (Zea mays); [9]): 20; Plant response rating, Corn (corn (Zea mays); [10]): 0; Plant response rating, Corn (corn (Zea mays); [11]): 0 |
| Cc1nn(-c2ccc(C(F)(F)F)cc2)nc1Oc1ccc(Cl)c(C(F)(F)F)c1 [Compound 103] | 0 | 0 | 0 | 30 | 0 | 20 | 0 | 0 | 0 | 0 | 50 | 70 | 10 | 0 | 10 | 0 | 0 | 0 | 0 | 0 | Plant response rating, Barnyardgrass [1, 10]: 0; Plant response rating, Barnyardgrass [1, 11]: 0; Plant response rating, Crabgrass, Large [2, 10]: 0; Plant response rating, Crabgrass, Large [2, 11]: 10; Plant response rating, Foxtail, Giant [3, 11]: 0; Plant response rating, Morningglory [4, 11]: 0; Plant response rating, Pigweed [5, 11]: 30; Plant response rating, Velvetleaf [6, 11]: 0; Plant response rating, Wheat [7, 11]: 0; Corn plant response rating (corn (Zea mays); [9]): 0; Plant response rating, Corn (corn (Zea mays); [10]): 0; Plant response rating, Corn (corn (Zea mays); [11]): 0 |
| OCc1nn(-c2ccc(C(F)(F)F)cc2)nc1Oc1cccc(C(F)(F)F)c1 [Compound 110] | 20 | 30 | 50 | 70 | 20 | 30 | 0 | 90 | 100 | 10 | 70 | 100 | 0 | 30 | 60 | 0 | 10 | 30 | 0 | 20 | Plant response rating, Barnyardgrass [1, 10]: 0; Plant response rating, Barnyardgrass [1, 11]: 0; Plant response rating, Crabgrass, Large [2, 10]: 0; Plant response rating, Crabgrass, Large [2, 11]: 20; Plant response rating, Foxtail, Giant [3, 11]: 20; Plant response rating, Morningglory [4, 11]: 20; Plant response rating, Pigweed [5, 11]: 50; Plant response rating, Velvetleaf [6, 11]: 10; Plant response rating, Wheat [7, 11]: 0; Corn plant response rating (corn (Zea mays); [9]): 30; Plant response rating, Corn (corn (Zea mays); [10]): 0; Plant response rating, Corn (corn (Zea mays); [11]): 0 |
| Cc1nn(-c2ccc(F)cc2)nc1Cn1cnc(C(F)(F)F)c1 [Compound 112] | 0 | 30 | 50 | 90 | 20 | 80 | 60 | 60 | 100 | 0 | 90 | 100 | 90 | 50 | 60 | 0 | 10 | 30 | 0 | 20 | Plant response rating, Barnyardgrass [1, 12]: 0; Plant response rating, Barnyardgrass [1, 13]: 40; Plant response rating, Crabgrass, Large [2, 12]: 80; Plant response rating, Crabgrass, Large [2, 13]: 100; Plant response rating, Foxtail, Giant [3, 13]: 90; Plant response rating, Morningglory [4, 13]: 20; Plant response rating, Pigweed [5, 13]: 100; Plant response rating, Velvetleaf [6, 13]: 20; Plant response rating, Wheat [7, 13]: 0; Corn plant response rating (corn (Zea mays); [9]): 20; Plant response rating, Corn (corn (Zea mays); [12]): 0; Plant response rating, Corn (corn (Zea mays); [13]): 0 |

— US9302999B2, “Substituted triazoles as herbicides” (E. I. DU PONT DE NEMOURS AND COMPANY, priority 2012, dated 2016)
